Laboratory results published in article PMC8776094, “Reactive Oxygen Species Production Is Responsible for Antineoplastic Activity of Osmium, Ruthenium, Iridium and Rhodium Half-Sandwich Type Complexes with Bidentate Glycosyl Heterocyclic Ligands in Various Cancer Cell Models” (International Journal of Molecular Sciences, 2022).

How the values were obtained:
[1] = Determination of the distribution coefficients (logD), n-octanol/PBS; assay type: physicochemical; conditions: n-octanol / PBS pH = 7.40, rt
Method: Before starting the experiments, n-octanol was saturated with an aqueous PBS solution (pH = 7.40) and vice versa. A solution of the appropriate complex (approximately 0.2–0.3 mg) in a mixture of 2.50 mL pre-saturated n-octanol and 2.50 mL pre-saturated PBS buffer was made, and the resulting mixture was then vigorously stirred for 3 days at rt. Based on our previous NMR stability experiments, this time is long enough to reach equilibrium among the various ionic complex species. Due to the lipophilic/hydrophilic features of the complexes, those with benzoyl protection could primarily be found in the n-octanol, while the complexes with O-peracetylated and O-deprotected ligands were in the aqueous PBS phase. The corresponding separated solution was centrifuged (ScanSpeed 406G instrument, 4000 RPM for 5 min) and the absorption of the ”stock solution” was determined (VWR UV-1600PC Spectrophotometer, 270–420 nm). Then, 2.00 mL of the stock solution was vigorously stirred with 16.00 mL of pre-saturated n-octanol or PBS solution. After one day had passed, the phases were separated, centrifuged, and the absorption of the solution was measured again. From the absorption difference of the stock solutions, the distribution coefficient (D) was determined using previously described formulae [71].

[2] = system: Capan2, a pancreatic adenocarcinoma cell line; experiment: SRB assay, 48 h, cytostasis, Capan2; assay type: cell-based; conditions: SRB assay, ND = not detected
Description: We turned next to assessing whether the cytostatic activity of Os-3, Os-4, Os-5, Os-6 and Ir-6 complexes is specific for ovarian cancer cell lines or if they may be active on other cell lines. To that end, we tested the complexes on another carcinoma cell line (Capan2, a pancreatic adenocarcinoma cell line), on a sarcoma cell line (Saos, an osteosarcoma cell line) and on a lymphoma cell line (L428, a Hodgkin’s lymphoma cell line).
Capan2 cells were maintained in MEM, 10% fetal bovine serum, 1% penicillin/streptomycin, and 2 mM glutamine.
(§1) The assay was performed similarly to the method used in [73]. Cells were seeded in 96-well plates the day before the assay. Cells were treated with the compounds for 48 h, with the exception of L428, where 96 h of treatment was applied. Cells were fixed with 10% trichloroacetic acid (TCA). Fixed cells were washed in distilled water 3 times, followed by staining with SRB (0.4 m/V% dissolved in 1% acetic acid) for 10 min. The stained cells were washed in 1% acetic acid 5 times; the acetic acid was removed, and the cells were left to dry. Protein-bound SRB was released by adding 100 µL 10 mM Tris base. Plates were measured in a plate photometer (Thermo Scientific Multiscan GO spectrophotometer, Waltham, MA, USA) at 540 nm. On each plate, wells were designed to contain untreated cells. In calculations, the readings for these wells were considered as 1 and all readings were expressed relative to these values.
(§2) Statistical analysis was performed using the 8.0.1 version of Graphpad Prism. Values were tested for normal distribution, using the d’Agostino and Pearson normality test. When necessary, values were log-normalized or were normalized using the Box-Cox normalization method or using a two-step transformation, as indicated in the figure captions. Nonlinear regression was performed using the built-in “[Inhibitor] vs. Response—Variable slope (four parameters), least-square fit” utility of Graphpad, yielding the IC50 and Hill slope values.
Here, 1.5 × 10^3 Capan2, 3 × 10^3 Saos cells and 10^4 L428 cells were plated onto 96-well plates. Capan2 and Saos cells were treated with the compounds in the concentrations indicated for 48 h for an SRB assay. L428 cells were treated with the compounds in the concentrations indicated for 96 h, then cells were counted using conventional microscopy and a Burker chamber. Data are represented as average ± SD, from three biological replicates; individual assays were performed in duplicate. Values were normalized for vehicle-treated cells; the absorbance for vehicle-treated cells is equal to 1. A one-way ANOVA, followed by a Kruskal–Wallis test, was performed individually for each compound. The results of the statistical analysis are presented in an Excel spreadsheet at https://figshare.com/s/28d14597d5041f08eb08 (accessed on 6 January 2022). Nonlinear regression was performed on the data.

[3] = system: A2780 ovarian cancer cells; experiment: SRB assay, 48 h, cytostasis, A2780; assay type: cell-based; conditions: for cytostatic activity on A2780 cells in SRB assay (in words): 48 h treatment; for A2780 Max. Inh. (%): ND = not detected
Method: (§3) The compounds were tested between 0.001694 and 33.3333 µM, using a 4-hour-long MTT test to assess rapid toxicity and a 48-hour-long SRB assay to assess the long-term effects of the inhibition of proliferation (cytostasis). The MTT assay assesses the activity of mitochondrial complex I and detects rapid, direct toxicity, as well as indicating apoptosis and necrosis. The SRB assay measures the total protein content that is proportional to cell numbers; therefore, the assay can detect changes in cell numbers and can thus be used as a readout for cell proliferation. The SRB assay was performed after 48 h of treatment (with the exception of L428 cells, which were tested for 96 h due to their slower proliferation rate). In this setting, the SRB assay informs us of long-term changes to cell proliferation. We assessed the maximal inhibition within that concentration range, and descriptive statistics were performed. We performed a one-way ANOVA, followed by the Kruskal–Wallis test, regardless of the normal or non-normal distribution of the data. Due to the large number of significance values, the results of the significance calculations are provided in an Excel spreadsheet at https://figshare.com/s/28d14597d5041f08eb08 (accessed on 6 January 2022), among other primary data of the study. Where possible, nonlinear regression was performed on the curves to determine the IC50 values ((inhibitor) vs. response—variable slope (four parameters) method with Graphpad v8.0.1). […] In Table 5, we added the IC50 values that we determined for a set of 4 active ruthenium half-sandwich complexes we identified previously, to be used in subsequent structure-activity relationship (SAR) analyses.
A2780 cells were cultured in RMPI 1640 medium, supplemented with 10% fetal calf serum, 2 mM glutamine, and 1% penicillin-streptomycin.
as §1, §2

[4] = system: ID8 ovarian cancer cell line; experiment: MTT reduction assay, 4 h, rapid toxicity, ID8; assay type: cell-based; conditions: MTT assay, 4 h treatment; ND = not detected or cannot be calculated
Method: as §3
(§4) ID8 cells were cultured in a high-glucose DMEM (4.5 g/L glucose) medium, supplemented with 4% fetal calf serum, 2 mM glutamine, 1% penicillin-streptomycin, and 1% ITS supplement (I3146).
The MTT reduction assay measures the activity of mitochondrial complex I and can be used to detect apoptosis and necrosis. The assay was performed similarly to the method used in [72]. Briefly, cells were plated in 96-well plates the day before the assay. Cells were treated with the compounds for 4 h, then MTT was added at 0.5 mg/mL final concentration and the cells were incubated at 37 °C in a cell incubator. The culture media were removed and the reduced MTT dye was dissolved in dimethyl-sulfoxide (DMSO) and plates were measured in a plate photometer (Thermo Scientific Multiscan GO spectrophotometer, Waltham, MA, USA) at 540 nm. On each plate, wells were designed to contain untreated/vehicle-treated cells. In the calculations, the readings for these wells were considered as 1 and all readings were expressed relative to these values.

[5] = system: ID8 ovarian cancer cell line; experiment: SRB assay, 48 h, cytostasis, ID8; assay type: cell-based; conditions: for ID8 Max. Inh. (%): SRB assay, 48 h, ND = not detected; for cytostatic activity on ID8 cells, SRB assay (in words): 48 h treatment
Method: as §3, §4, §1, §2

| Compound | LogD [1] | A2780 Max. Inh. (%) ([3]; SRB assay, 48 h) | other results |
| --- | --- | --- | --- |
| Cc1c(C)c(C)[c-](C)c1C.F[P-](F)(F)(F)(F)F.O=C(OCC1OC(c2nnc(-c3ccccn3)o2)C(OC(=O)c2ccccc2)C(OC(=O)c2ccccc2)C1OC(=O)c1ccccc1)c1ccccc1.[Cl][Ir+2] (mixture of isomers) [Ir-3] | 1.46 | 69.25% | Capan2 Max. Inh. (%) [2]: 27.62%; cytostatic activity on A2780 cells in SRB assay (in words) [3]: mild; Maximum Inhibition (%) ID8 [4]: 26.11% |
| Cc1c(C)c(C)[c-](C)c1C.F[P-](F)(F)(F)(F)F.O=C(OC1COC(c2nnc(-c3ccccn3)o2)C(OC(=O)c2ccccc2)C1OC(=O)c1ccccc1)c1ccccc1.[Cl][Ir+2] (mixture of isomers) [Ir-5] | 1.80 | 45.45% | ID8 Max. Inh. (%) [5]: 53.15% |
| CC(=O)OCC1OC(c2nnc(-c3ccccn3)o2)C(OC(C)=O)C(OC(C)=O)C1OC(C)=O.Cc1c(C)c(C)[c-](C)c1C.F[P-](F)(F)(F)(F)F.[Cl][Ir+2] (mixture of isomers) [Ir-7] | −0.75 | 26.91% |  |
| Cc1c(C)c(C)[c-](C)c1C.F[P-](F)(F)(F)(F)F.OCC1OC(n2cc(-c3ccccn3)nn2)C(O)C(O)C1O.[Cl][Ir+2] (mixture of isomers) [Ir-12] |  | 19.11% | cytostatic activity on A2780 cells in SRB assay (in words) [3]: biologically inactive |
| Cc1c(C)c(C)[c-](C)c1C.F[P-](F)(F)(F)(F)F.O=C(OCC1OC(c2nnc(-c3ccccn3)o2)C(OC(=O)c2ccccc2)C(OC(=O)c2ccccc2)C1OC(=O)c1ccccc1)c1ccccc1.[Cl][Rh+2] (mixture of isomers) [Rh-4] | 1.64 | 35.30% |  |
| Cc1c(C)c(C)[c-](C)c1C.F[P-](F)(F)(F)(F)F.OC1COC(c2nnc(-c3ccccn3)o2)C(O)C1O.[Cl][Ir+2] (mixture of isomers) [Ir-10] | −1.56 | 23.12% |  |
| Cc1c(C)c(C)[c-](C)c1C.F[P-](F)(F)(F)(F)F.O=C(OCC1OC(n2cc(-c3ccccn3)nn2)C(OC(=O)c2ccccc2)C(OC(=O)c2ccccc2)C1OC(=O)c1ccccc1)c1ccccc1.[Cl][Rh+2] (mixture of isomers) [Rh-6] | 1.85 | 59% | cytostatic activity on ID8 cells, SRB assay (in words) [5]: mild cytostatic activity; ID8 Max. Inh. (%) [5]: 43.70%; IC50 ([3]; SRB assay, 48 h): 25.3 µM; Maximum Inhibition (%) ID8 [4]: 28.28% |
| Cc1c(C)c(C)[c-](C)c1C.F[P-](F)(F)(F)(F)F.O=C(OC1COC(c2nnc(-c3ccccn3)o2)C(OC(=O)c2ccccc2)C1OC(=O)c1ccccc1)c1ccccc1.[Cl][Rh+2] (mixture of isomers) [Rh-5] | 1.8 | 51.28% | cytostatic activity on ID8 cells, SRB assay (in words) [5]: mild cytostatic activity; ID8 Max. Inh. (%) [5]: 75.25%; Maximum Inhibition (%) ID8 [4]: 21.87% |
| Cc1c(C)c(C)[c-](C)c1C.F[P-](F)(F)(F)(F)F.O=C(OCC1OC(c2nnc(-c3ccccn3)o2)C(OC(=O)c2ccccc2)C(OC(=O)c2ccccc2)C1OC(=O)c1ccccc1)c1ccccc1.[Cl][Rh+2] (mixture of isomers) [Rh-3] | 1.60 | 39.86% |  |
| CC(=O)OCC1OC(n2cc(-c3ccccn3)nn2)C(OC(C)=O)C(OC(C)=O)C1OC(C)=O.Cc1c(C)c(C)[c-](C)c1C.F[P-](F)(F)(F)(F)F.[Cl][Ir+2] (mixture of isomers) [Ir-11] |  | 20.26% | cytostatic activity on A2780 cells in SRB assay (in words) [3]: biologically inactive |
| Cc1c(C)c(C)[c-](C)c1C.F[P-](F)(F)(F)(F)F.OCC1OC(c2nnc(-c3ccccn3)o2)C(O)C(O)C1O.[Cl][Ir+2] (mixture of isomers) [Ir-8] | −1.60 |  |  |
| Cc1c(C)c(C)[c-](C)c1C.F[P-](F)(F)(F)(F)F.OCC1OC(c2nnc(-c3ccccn3)o2)C(O)C(O)C1O.[Cl][Ir+2] (mixture of isomers) [Ir-9] | −1.47 | 21.29% |  |
| Cc1c(C)c(C)[c-](C)c1C.F[P-](F)(F)(F)(F)F.OCC1OC(c2noc(-c3ccccn3)n2)C(O)C(O)C1O.[Cl][Ir+2] (mixture of isomers) [Ir-2] | −1.15 | 36.38% |  |
| Cc1c(C)c(C)[c-](C)c1C.F[P-](F)(F)(F)(F)F.O=C(OCC1OC(c2noc(-c3ccccn3)n2)C(OC(=O)c2ccccc2)C(OC(=O)c2ccccc2)C1OC(=O)c1ccccc1)c1ccccc1.[Cl][Ir+2] (mixture of isomers) [Ir-1] | 2.87 | 35.13% |  |
| Cc1c(C)c(C)[c-](C)c1C.F[P-](F)(F)(F)(F)F.O=C(OCC1OC(c2nnc(-c3ccccn3)o2)C(OC(=O)c2ccccc2)C(OC(=O)c2ccccc2)C1OC(=O)c1ccccc1)c1ccccc1.[Cl][Ir+2] (mixture of isomers) [Ir-4] | 1.46 | 32.45% |  |
| dichloro(η^6-p-cymene)osmium(II) dimer [Os-dimer] |  |  | cytostatic activity on ID8 cells, SRB assay (in words) [5]: inactive; cytostatic activity on A2780 cells in SRB assay (in words) [3]: inactive |
